Measured values published in patent publication US20110269758A1, “NAPHTHYRIDINONES AS PROTEIN KINASE INHIBITORS” (MERCK PATENT GMBH, priority 2008, published 2011).
pIC50: −log10 of the molar value.

Target: T1, Aurora Kinase A (Homo sapiens, UniProt O14965)
T1 construct: full length Aurora A (1-403 amino acids); purchased Carna Biosciences 05-101
T1 sequence (O14965 1-403): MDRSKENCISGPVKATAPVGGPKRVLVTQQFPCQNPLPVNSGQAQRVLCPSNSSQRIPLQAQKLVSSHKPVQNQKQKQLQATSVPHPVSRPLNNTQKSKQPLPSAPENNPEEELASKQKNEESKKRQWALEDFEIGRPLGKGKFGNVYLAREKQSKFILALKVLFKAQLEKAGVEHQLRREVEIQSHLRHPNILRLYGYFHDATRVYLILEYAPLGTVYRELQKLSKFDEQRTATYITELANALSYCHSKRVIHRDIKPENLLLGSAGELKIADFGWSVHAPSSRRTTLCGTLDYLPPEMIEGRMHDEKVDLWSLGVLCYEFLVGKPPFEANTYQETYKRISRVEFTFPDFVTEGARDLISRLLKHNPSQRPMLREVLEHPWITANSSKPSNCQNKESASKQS
Test: Biochemical enzyme assay for Aurora A activity (Caliper LC3000 / Desktop Profiler mobility shift)
Settings: GST-Aurora A, 15 μM ATP, 90 min at 25° C.; LC3000 or Desktop Profiler; read-out: Aurora Kinase A IC50
Experimental: The Aurora assays described here were performed on two Caliper Life Sciences systems, the LC3000 and the Desktop Profiler. These provide data on enzyme activity via measurement of the relative amounts of phosphorylated or unphosphorylated fluorescently labelled substrate peptide at the end of an enzymatic reaction. These different states of peptide are resolved by applying a potential difference across the sample. The presence of a charged phosphate group on the product (as opposed to the substrate) causes a different peptide mobility between the two peptides. This is visualized by excitation of a fluorescent label on the substrate and product peptides and represented as peaks within the analysis software.
In order to measure inhibitor activity of Aurora A inhibitors in the Caliper Life Sciences LC3000, a TTP Mosquito liquid handling instrument was used to place 0.25 μl of an appropriate concentration of inhibitor in 100% DMSO (for a dose response curve calculation) into each well of a 384-well plate.
The reaction was incubated for 90 min at 25° C., and then stopped by the addition of 70 μl of Stop buffer (100 mM HEPES pH 7.5, 0.015% Brij-35, 10 mM EDTA (Sigma, E7889)).
The plate was read on a Caliper LC 3000 in an Off-Chip mobility shift assay format, using the following parameters for a 12-sipper chip: screening pressure −1.8 psi, upstream voltage −2700, downstream voltage −1000. These conditions cause unphosphorylated substrate and phosphorylated product peptide to resolve as separate peaks allowing direct measurement of percentage of conversion of substrate to product.
The Desktop Profiler utilizes the same prinicipal as the LC 3000 for calculating percentage conversion of a substrate to product. Caliper Life Sciences provided proprietary flash frozen pre-made 384 well plates containing selected kinases. Each column in the 384 well plate contained a particular selected kinase. A second plate, the ‘substrate plate’ contained a mix of fluorescently labeled peptide substrate and ATP. These were arranged in columns so that transfer for substrate plate to enzyme plate provided the correct enzyme with the correct substrate/ATP concentration.
Compounds were added to a thawed enzyme plate in the desired format, in single concentrations. Reactions were initiated by transfer of the substrate/ATP mix from the substrate plate. The enzyme plate was incubated for 90 mins at 25° C. The reaction was stopped by addition of 70 μl of Stop Buffer (100 mM HEPES pH 7.5, 0.015% Brij-35, 10 mM EDTA (Sigma, E7889)).
Plates were read in a manner identical to that of the LC3000, and the ratio between substrate and product peaks provided the activity of the enzyme in that well.

SMILES | pIC50
O=C(Nc1ccc(Nc2ccnc3[nH]c(=O)ccc23)cc1)c1ccc(F)cc1F [Compound 44, 2,4-Difluoro-N-(4-(7-oxo-7,8-dihydro-1,8-naphthyridin-4-yl-amino)phenyl)benzamide] | 6.22 to 6.52
O=C(Nc1ccccc1)c1ccc(Nc2ccnc3[nH]c(=O)ccc23)cc1 [Compound 48, 4-(7-Oxo-7,8-dihydro-1,8-naphthyridin-4-ylamino)-N-phenyl-benzamide] | < 6.00
O=C(Nc1ccc(Nc2ccnc3[nH]c(=O)ccc23)cc1)c1cc(C(F)(F)F)cc(C(F)(F)F)c1 [Compound 49, 3,5-Bis(trifluoromethyl)-N-(4-(7-oxo-7,8-dihydro-1,8-naphthyridin-4-yl-amino)phenyl)benzamide] | < 6.00
O=C(Nc1ccc(Nc2ccnc3[nH]c(=O)ccc23)cc1)c1ccc(OC(F)(F)F)cc1 [Compound 56, 4-Trifluoromethoxy-N-(4-(7-oxo-7,8-dihydro-1,8-naphthyridin-4-yl-amino)phenyl)benzamide] | 6.00 to 6.22
CN(C)CCCOc1ccc2c(Nc3ccc(C(=O)Nc4ccccc4)cc3)ccnc2n1 [Compound 69, N-(4-(7-(4-Dimethylamino-propoxy)-1,8-naphthyridin-4-yl-amino)phenyl)benzamide] | < 6.00
CC(C)(C)OC(=O)c1c(-c2ccccc2)c2c(Cl)ccnc2[nH]c1=O [Compound 75, 5-Chloro-2-oxo-4-phenyl-1,2-dihydro-1,8-naphthyridi-3-carboxylic acid tert-butyl ester] | 6.52 to 9.00
O=C(Nc1ccc(Nc2ccnc3[nH]c(=O)c(C(=O)O)c(-c4ccccc4)c23)cc1)c1ccc(F)c(F)c1 [Compound 76, 5-[(3,4-Difluoro-benzoylamino)-phenylamino]-2-oxo-4-phenyl1,2-dihydro-1,8-naphthyridine-3-carboxylic acid] | 6.52 to 9.00
CN(C)CCNC(=O)c1c(-c2ccccc2)c2c(Nc3ccc(NC(=O)c4ccc(F)c(F)c4)cc3)ccnc2[nH]c1=O [Compound 77, 5-[(3,4-Difluoro-benzoylamino)-phenylamino]-2-oxo-4-phenyl-1,2-dihydro-1,8-naphthyridine-3-carboxylic acid (2-dimethylamino-ethyl)-amide] | < 6.00
O=C(Nc1ccc(Nc2ccnc3[nH]c(=O)c(C(=O)NCCO)c(-c4ccccc4)c23)cc1)c1ccc(F)c(F)c1 [Compound 78, 5-[(3,4-Difluoro-benzoylamino)-phenylamino]-2-oxo-4-phenyl-1,2-dihydro-1,8-naphthyridine-3-carboxylic acid (2-hydroxy-ethyl)-amide] | 6.52 to 9.00
O=C(Nc1ccc(Nc2ccnc3[nH]c(=O)c(C(=O)NC[C@H](O)CO)c(-c4ccccc4)c23)cc1)c1ccc(F)c(F)c1 [Compound 79, 5-[(3,4-Difluoro-benzoylamino)-phenylamino]-2-oxo-4-phenyl-1,2-dihydro-1,8-naphthyridine-3-carboxylic acid ((S)2,3-dihydroxypropyl)-amide] | < 6.00
O=C(O)Cc1cc2c(Cl)ccnc2[nH]c1=O [Compound 80, (5-Chloro-2-oxo-1,2-dihydro-1,8-naphthyridin-3-yl)-acetic acid] | 6.52 to 9.00
O=C(Cc1cc2c(Nc3ccc(NC(=O)c4ccc(F)c(F)c4)cc3)ccnc2[nH]c1=O)NCCO [Compound 82] | 6.52 to 9.00
Nc1ncnc(Nc2ccc(NC(=O)c3ccccc3)cc2)c1C=O [Compound 83, N-[4-(6-Amino-5-formyl-pyrimidin-4-ylamino)-phenyl]-benzamide] | < 6.00
COC(=O)c1cc2c(Nc3ccc(NC(=O)c4ccccc4)cc3)ncnc2[nH]c1=O [Compound 84, 4-(4-Benzoylamino-phenylamino)-7-oxo-7,8-dihydro-pyrido[2,3-d]pyrimidine-6-carboxylic acid methyl ester] | < 6.00
O=C(Nc1ccc(Nc2ncnc3[nH]c(=O)c(C(=O)O)cc23)cc1)c1ccccc1 [Compound 85, 4-(4-Benzoylamino-phenylamino)-7-oxo-7,8-dihydro-pyrido[2,3-d]pyrimidine-6-carboxylic acid] | < 6.00
O=C(Nc1ccc(Nc2ccnc3[nH]c(=O)c([N+](=O)[O-])cc23)cc1)c1ccc(F)c(F)c1 [Compound 87, 3,4-Difluoro-N-(4-(6-nitro-7-oxo-7,8-dihydro-1,8-naphthyridin-4-ylamino)phenyl)benzamide] | 6.52 to 9.00

Continued, values first:

pIC50 | SMILES
6.52 to 9.00 | O=c1ccc2c(Nc3c(Cl)ccc4c3OCO4)ccnc2[nH]1 [Compound 31a, 5-(5-chlorobenzo[d][1,3]dioxo-4-ylamino)-1,8-naphthyridin-2(1H)-one]
6.52 to 9.00 | O=C(Nc1ccc(Nc2ccnc3[nH]c(=O)ccc23)cc1)c1ccccc1 [Compound 32, N-(4-(7-oxo-7,8-dihydro-1,8-naphthyridin-4-yl-amino)phenyl)benzamide]
6.52 to 9.00 | O=C(Nc1ccc(Nc2ccnc3[nH]c(=O)ccc23)cc1)c1ccccc1F [Compound 34, 2-Fluoro-N-(4-(7-oxo-7,8-dihydro-1,8-naphthyridin-4-yl-amino)phenyl)benzamide]
6.52 to 9.00 | O=C(Nc1ccc(Nc2ccnc3[nH]c(=O)ccc23)cc1)c1cccc(F)c1 [Compound 35, 3-Fluoro-N-(4-(7-oxo-7,8-dihydro-1,8-naphthyridin-4-yl-amino)phenyl)benzamide]
6.52 to 9.00 | O=C(Nc1ccc(Nc2ccnc3[nH]c(=O)ccc23)cc1)c1ccc(F)cc1 [Compound 36, 4-Fluoro-N-(4-(7-oxo-7,8-dihydro-1,8-naphthyridin-4-yl-amino)phenyl)benzamide]
6.52 to 9.00 | O=C(Nc1ccc(Nc2ccnc3[nH]c(=O)ccc23)cc1)c1ccc(F)cc1C(F)(F)F [Compound 40, 4-Fluoro-2-trifluoromethyl-N-(4-(7-oxo-7,8-dihydro-1,8-naphthyridin-4-yl-amino)phenyl)benzamide]
6.52 to 9.00 | O=C(Nc1ccc(Nc2ccnc3[nH]c(=O)ccc23)cc1)c1c(F)cccc1F [Compound 41, 2,6-Difluoro-N-(4-(7-oxo-7,8-dihydro-1,8-naphthyridin-4-yl-amino)phenyl)benzamide]
6.52 to 9.00 | O=C(Nc1ccc(Nc2ccnc3[nH]c(=O)ccc23)cc1)c1ccc(F)c(F)c1 [Compound 42, 3,4-Difluoro-N-(4-(7-oxo-7,8-dihydro-1,8-naphthyridin-4-yl-amino)phenyl)benzamide]
6.52 to 9.00 | O=C(Nc1ccc(Nc2ccnc3[nH]c(=O)ccc23)cc1)c1cc(F)cc(F)c1 [Compound 43, 3,5-Difluoro-N-(4-(7-oxo-7,8-dihydro-1,8-naphthyridin-4-yl-amino)phenyl)benzamide]
6.52 to 9.00 | O=C(Nc1ccc(Nc2ccnc3[nH]c(=O)ccc23)cc1)C1CCCCC1 [Compound 45, N-(4-(7-oxo-7,8-dihydro-1,8-naphthyridin-4-yl-amino)phenyl)cyclohexanecarboxamide]
6.52 to 9.00 | O=C(Nc1ccc(Oc2ccnc3[nH]c(=O)ccc23)cc1)c1ccccc1 [Compound 46, N-(4-(7-oxo-7,8-dihydro-1,8-naphthyridin-4-yloxy)phenyl)benzamide]
6.52 to 9.00 | O=C(Nc1ccccc1Nc1ccnc2[nH]c(=O)ccc12)c1ccccc1 [Compound 47, N-(2-(7-oxo-7,8-dihydro-1,8-naphthyridin-4-ylamino)phenyl)benzamide]
6.52 to 9.00 | O=C(Nc1ccc(Nc2ccnc3nc(Cl)ccc23)cc1)c1ccccc1 [Compound 63, N-(4-(7-Chloro-1,8-naphthyridin-4-yl-amino)phenyl)benzamide]
6.52 to 9.00 | CN(C)C1CCN(c2ccc3c(Nc4ccc(C(=O)Nc5ccccc5)cc4)ccnc3n2)CC1 [Compound 64]
6.52 to 9.00 | CC(C)(C)C(=O)Nc1nccc(Cl)c1C(=O)c1ccccc1 [Compound 73, N-(3-Benzoyl-4-chloropyridin-2-yl)-2,2-dimethylpropanamide]
6.52 to 9.00 | Nc1nccc(Cl)c1C(=O)c1ccccc1 [Compound 74, (2-Amino-4-chloro-pyridin-3-yl)-phenyl-methanone]
